Data taken from the NIST ThermoML archive (doi:10.1016/j.fluid.2014.09.017).
Several values for one entry are separate records, joined by “and”; a condition that tells them apart may be missing. Equal entries are not always repeated. ± gives the expanded uncertainty stated by the source.

Details: for vapor or sublimation pressure: Liquid, Closed cell (Static) method; for speed of sound: Gas, Cylindrical cavity resonance method

CC(C)C [2-methylpropane]
Details	vapor or sublimation pressure
258.92 K	91.82 ± 0.62 kPa
264.24 K	112.99 ± 0.63 kPa
265.67 K	119.32 ± 0.63 kPa
267.2 K	126.35 ± 0.64 kPa
273 K	156 ± 0.65 kPa
273.15 K	156.85 ± 0.65 kPa
275.31 K	169.22 ± 0.66 kPa
278.94 K	191.71 ± 0.67 kPa
280 K	198.68 ± 0.68 kPa
281.24 K	207.12 ± 0.69 kPa
282.81 K	218.08 ± 0.69 kPa
284.02 K	226.9 ± 0.7 kPa
285.82 K	240.51 ± 0.71 kPa
287.25 K	251.7 ± 0.72 kPa
288.67 K	263.24 ± 0.73 kPa
290 K	274.38 ± 0.74 kPa
291.96 K	291.5 ± 0.75 kPa
291.99 K	291.68 ± 0.75 kPa
293.5 K	305.47 ± 0.77 kPa
294.79 K	317.56 ± 0.78 kPa
296.3 K	332.18 ± 0.79 kPa
299.97 K	369.83 ± 0.83 kPa
301.05 K	381.52 ± 0.84 kPa
302.76 K	400.6 ± 0.86 kPa
304.46 K	420.14 ± 0.88 kPa
305.97 K	438.06 ± 0.9 kPa and 438.12 ± 0.9 kPa
307.39 K	455.55 ± 0.92 kPa
308.82 K	473.64 ± 0.94 kPa
310 K	488.84 ± 0.96 kPa
312.11 K	516.99 ± 0.99 kPa
314.51 K	550.49 ± 1 kPa
314.52 K	550.72 ± 1 kPa
316.61 K	581.22 ± 1.1 kPa
320 K	633.44 ± 1.1 kPa
322 K	665.79 ± 1.2 kPa
324.13 K	701.6 ± 1.2 kPa
326 K	734.19 ± 1.3 kPa and 734.22 ± 1.3 kPa
326.58 K	744.59 ± 1.3 kPa
328 K	770.36 ± 1.3 kPa
328.63 K	781.99 ± 1.3 kPa
330 K	807.67 ± 1.4 kPa
332 K	846.32 ± 1.4 kPa
332.15 K	849.38 ± 1.4 kPa
334 K	886.42 ± 1.5 kPa
334.71 K	900.88 ± 1.5 kPa
338.87 K	989.76 ± 1.6 kPa
342 K	1060.5 ± 1.7 kPa
342.57 K	1073.8 ± 1.7 kPa
344 K	1107.8 ± 1.8 kPa
344.84 K	1128.1 ± 1.8 kPa
347.48 K	1193.6 ± 1.9 kPa
350 K	1258.8 ± 2 kPa
354.89 K	1392.5 ± 2.2 kPa
357.13 K	1457.2 ± 2.3 kPa
360 K	1543.1 ± 2.5 kPa
362.41 K	1618.3 ± 2.6 kPa
364.65 K	1690.7 ± 2.7 kPa
367.12 K	1773.1 ± 2.8 kPa
370 K	1872.6 ± 3 kPa
373.25 K	1990.5 ± 3.2 kPa
375.82 K	2087.2 ± 3.3 kPa
377.95 K	2170.2 ± 3.5 kPa
380 K	2252.2 ± 3.6 kPa
382.69 K	2363.4 ± 3.8 kPa
385.14 K	2468.3 ± 3.9 kPa
387.96 K	2593.6 ± 4.1 kPa
390 K	2687.2 ± 4.3 kPa
390.02 K	2688.3 ± 4.3 kPa
392.64 K	2812.8 ± 4.5 kPa
392.7 K	2815.5 ± 4.5 kPa
394.37 K	2897.1 ± 4.6 kPa
394.77 K	2917.1 ± 4.6 kPa
397.49 K	3055 ± 4.9 kPa
399.62 K	3166.9 ± 5 kPa
400 K	3187.2 ± 5.1 kPa
400.09 K	3191.9 ± 5.1 kPa
400.19 K	3197.4 ± 5.1 kPa
402.45 K	3320.9 ± 5.3 kPa
402.46 K	3321.8 ± 5.3 kPa
403.93 K	3404.5 ± 5.4 kPa
404.71 K	3449.2 ± 5.5 kPa
405 K	3465.7 ± 5.5 kPa
405.99 K	3523.6 ± 5.6 kPa

Details	speed of sound [m/s]
270 K, 54.63 kPa	203.09 ± 0.073
270 K, 68.26 kPa	202.24 ± 0.073
270 K, 75.99 kPa	201.75 ± 0.073
270 K, 86.24 kPa	201.09 ± 0.073
270 K, 94.7 kPa	200.54 ± 0.073
270 K, 103.06 kPa	200 ± 0.073
270 K, 111.76 kPa	199.42 ± 0.072
280 K, 52.41 kPa	206.99 ± 0.073
280 K, 62.45 kPa	206.43 ± 0.073
280 K, 70.73 kPa	205.97 ± 0.073
280 K, 82.68 kPa	205.28 ± 0.073
280 K, 94.96 kPa	204.58 ± 0.073
280 K, 108.81 kPa	203.77 ± 0.073
280 K, 121.29 kPa	203.03 ± 0.072
280 K, 133.05 kPa	202.32 ± 0.072
280 K, 145.5 kPa	201.57 ± 0.072
290 K, 58.49 kPa	210.38 ± 0.073
290 K, 78.62 kPa	209.35 ± 0.073
290 K, 97.12 kPa	208.38 ± 0.073
290 K, 116.17 kPa	207.38 ± 0.073
290 K, 139.15 kPa	206.14 ± 0.073
290 K, 147.23 kPa	205.68 ± 0.072
290 K, 158.57 kPa	205.07 ± 0.073
290 K, 161.39 kPa	204.9 ± 0.073
290 K, 173.83 kPa	204.22 ± 0.072
290 K, 177.47 kPa	204 ± 0.073
290 K, 193.67 kPa	203.09 ± 0.072
300 K, 37.47 kPa	214.93 ± 0.074
300 K, 57.39 kPa	214.01 ± 0.074
300 K, 80.89 kPa	212.92 ± 0.073
300 K, 107.72 kPa	211.65 ± 0.073
300 K, 127.82 kPa	210.67 ± 0.073
300 K, 150.12 kPa	209.58 ± 0.073
300 K, 168.57 kPa	208.67 ± 0.073
300 K, 201.3 kPa	207 ± 0.072
300 K, 235.37 kPa	205.23 ± 0.072
310 K, 45.64 kPa	218.03 ± 0.074
310 K, 76.78 kPa	216.71 ± 0.074
310 K, 107.37 kPa	215.4 ± 0.074
310 K, 141.66 kPa	213.88 ± 0.073
310 K, 178.43 kPa	212.23 ± 0.073
310 K, 212.65 kPa	210.65 ± 0.073
310 K, 247.33 kPa	209.01 ± 0.073
310 K, 299.72 kPa	206.46 ± 0.072
320 K, 57.93 kPa	220.96 ± 0.075
320 K, 83.1 kPa	219.97 ± 0.075
320 K, 109.17 kPa	218.94 ± 0.074
320 K, 159.3 kPa	216.91 ± 0.074
320 K, 192.01 kPa	215.56 ± 0.074
320 K, 262.64 kPa	212.56 ± 0.073
320 K, 289.64 kPa	211.37 ± 0.073
320 K, 343.58 kPa	208.94 ± 0.072
320 K, 383.31 kPa	207.1 ± 0.072
330 K, 39.62 kPa	224.99 ± 0.076
330 K, 69.47 kPa	223.92 ± 0.075
330 K, 107.25 kPa	222.55 ± 0.075
330 K, 151.31 kPa	220.92 ± 0.075
330 K, 195.14 kPa	219.27 ± 0.074
330 K, 246.95 kPa	217.27 ± 0.074
330 K, 297.38 kPa	215.27 ± 0.073
330 K, 339.74 kPa	213.55 ± 0.073
330 K, 422.84 kPa	210.06 ± 0.072
330 K, 480.1 kPa	207.54 ± 0.072
